What was measured:
Assay in all cases: relative viability (nuclei count vs DMSO), 5 days (fraction); higher = more cells survive
Adavosertib + Olaparib = compound: C=CCn1c(=O)c2cnc(Nc3ccc(N4CCN(C)CC4)cc3)nc2n1-c1cccc(C(C)(C)O)n1 [Adavosertib] + O=C(c1cc(Cc2n[nH]c(=O)c3ccccc23)ccc1F)N1CCN(C(=O)C2CC2)CC1 [Olaparib] (partner 8 µM)
In short: (§1)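 Values are medians from duplicate plates. Each reflects relative viability, defined as the nuclei count of treated wells over that of vehicle wells. Lung cancer cell lines in 1536-well plates were pin-tool dosed one day after seeding with one drug alone or with a fixed anchor-drug dose plus five library-drug doses (not always all listed) in √10 steps, then fixed, stained and imaged at 4× after 5 days.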

Adavosertib + Pemetrexed = compound: C=CCn1c(=O)c2cnc(Nc3ccc(N4CCN(C)CC4)cc3)nc2n1-c1cccc(C(C)(C)O)n1 [Adavosertib] + Nc1nc2[nH]cc(CCc3ccc(C(=O)N[C@@H](CCC(=O)O)C(=O)O)cc3)c2c(=O)[nH]1 [Pemetrexed] (partner 0.2 µM)
In short: as §1

Nelarabine + Vorinostat = compound: COc1nc(N)nc2c1ncn2[C@@H]1O[C@H](CO)[C@@H](O)[C@@H]1O [Nelarabine] + O=C(CCCCCCC(=O)Nc1ccccc1)NO [Vorinostat] (partner 1 µM)
In short: as §1

Nelarabine + Pictilisib = compound: COc1nc(N)nc2c1ncn2[C@@H]1O[C@H](CO)[C@@H](O)[C@@H]1O [Nelarabine] + CS(=O)(=O)N1CCN(Cc2cc3nc(-c4cccc5[nH]ncc45)nc(N4CCOCC4)c3s2)CC1 [Pictilisib] (partner 1 µM)
In short: as §1

Cell Line | relative viability (Adavosertib + Olaparib; first compound 0.01 µM) | relative viability (Adavosertib + Olaparib; first compound 0.03162 µM) | relative viability (Adavosertib + Olaparib; first compound 0.1 µM) | relative viability (Adavosertib + Olaparib; first compound 0.3162 µM) | relative viability (Adavosertib + Pemetrexed; first compound 0.01 µM) | relative viability (Adavosertib + Pemetrexed; first compound 0.03162 µM) | relative viability (Adavosertib + Pemetrexed; first compound 0.1 µM) | relative viability (Adavosertib + Pemetrexed; first compound 0.3162 µM) | relative viability (Nelarabine + Vorinostat; first compound 0.01 µM) | relative viability (Nelarabine + Vorinostat; first compound 0.03162 µM) | relative viability (Nelarabine + Vorinostat; first compound 0.1 µM) | relative viability (Nelarabine + Vorinostat; first compound 0.3162 µM) | relative viability (Nelarabine + Vorinostat; first compound 1 µM) | relative viability (Nelarabine + Pictilisib; first compound 0.01 µM) | relative viability (Nelarabine + Pictilisib; first compound 0.03162 µM) | relative viability (Nelarabine + Pictilisib; first compound 0.1 µM) | relative viability (Nelarabine + Pictilisib; first compound 0.3162 µM) | relative viability (Nelarabine + Pictilisib; first compound 1 µM)
ChaGo-K-1 | 0.434 | 0.39 | 0.405 | 0.32 | 0.271 | 0.255 | 0.258 | 0.257 | 0.972 | 0.645 | 0.723 | 0.741 | 0.771 | 0.699 | 0.611 | 0.934 | 0.678 | 0.743
PC-14 | 0.44 | 0.211 | 0.176 | 0.0727 | 0.151 | 0.121 | 0.115 | 0.0767 | 0.832 | 0.736 | 0.662 | 0.578 | 0.691 | 1.17 | 0.759 | 0.563 | 0.815 | 0.653
LK-2 | 0.742 | 0.891 | 0.763 | 0.767 | 0.266 | 0.238 | 0.357 | 0.215 | 0.242 | 0.256 | 0.334 | 0.294 | 0.283 | 0.68 | – | 0.503 | 0.436 | 0.651
COR-L 105 | 0.657 | 0.689 | 0.76 | 0.65 | 0.976 | 1.07 | 1.07 | 0.916 | 0.805 | 0.887 | 0.952 | 1.12 | 0.726 | 0.341 | 0.4 | 0.352 | 0.424 | 0.39
UMC-11 | 0.411 | 0.429 | 0.452 | 1.03 | 0.791 | 0.725 | 0.763 | 0.594 | 0.385 | 0.306 | 0.386 | 0.371 | 0.404 | 1.05 | 0.729 | 0.874 | 1.02 | 0.898
NCI-H1975 | 0.873 | 0.803 | 0.737 | 0.63 | 0.263 | 0.268 | 0.209 | 0.213 | 0.87 | 0.7 | 0.778 | 0.796 | 0.76 | 0.325 | 0.295 | 0.369 | 0.335 | 0.331
LXF-289 | 1.1 | 1.06 | 1.13 | 1.02 | 0.914 | 0.931 | 0.856 | 0.722 | 0.84 | 0.698 | 0.674 | 0.807 | 0.662 | 0.739 | 0.841 | 0.845 | 0.801 | 0.751
NCI-H1993 | 0.97 | 1.01 | 0.988 | 1.26 | 0.57 | 0.517 | 0.608 | 0.629 | 0.742 | 0.728 | 0.736 | 0.592 | 0.694 | 0.718 | 0.81 | 0.894 | 0.779 | 0.899
NCI-H23 | 0.339 | 0.317 | 0.24 | 0.138 | 0.664 | 0.539 | 0.487 | 0.262 | 0.737 | 0.604 | 0.548 | 0.615 | 0.584 | 0.494 | 0.499 | 0.528 | 0.459 | 0.51

Reference: the supplement of paper PMC10307832
